Data taken from PMC12190436, “5-Ene-2-arylaminothiazol-4(5H)-ones Induce Apoptosis in Breast Cancer Cells” (Cells, 2025).
Counter-ions that a name gives are not always drawn.

Assays:
AGS = test: MTT cell viability assay; type: cell-based; conditions: Homo sapiens
From the text: (§1) All of the tested cell lines were acquired from the American Type Culture Collection (ATCC, Manassas, VA, USA), including human breast cancer cell lines (MCF-7, MDA-MB-231), human gastric cancer cell line (AGS), human colorectal cancer cell lines (HT-29, DLD-1), human glioblastoma cancer cell lines (T98G, A172), mouse astrocyte type I clone (C8-D1A), human normal epithelial breast cells (MCF-10A) and primary dermal fibroblast (HDFa). Such cell lines as AGS, MCF-7, MDA-MB-231, A172, T98G, C8-D1A, and primary dermal fibroblast (HDFa) were cultured in complete medium–DMEM (Corning, Kennebunk, ME, USA). RPMI-1640 (ATCC, Manassas, VA, USA) was used for the DLD-1 cell line, and McCoy’s 5A (PAN-Biotech, Aidenbach, Germany) for the HT-29 cell line. To all utilized media additionally was added 10% fetal bovine serum (FBS) (Eurx, Gdansk, Poland) and 1% penicillin and streptomycin solution (Corning, Kennebunk, ME, USA). MCF-10A cells were incubated in MEGM (Mammary Epithelial Cell Growth Medium) BulletKit supplemented with penicillin/streptomycin cocktail and 5% horse serum. All cells were cultured at 37 °C in an atmosphere with 5% CO₂ in tissue culture dishes (Sarstedt, Numbrecht, Germany). For experiments, cells were washed with phosphate-buffered saline (PBS) (Corning, Kennebunk, ME, USA) followed by the addition of 0.05% trypsin with 0.02% EDTA (Corning, Kennebunk, ME, USA). Scepter 3.0 cell counter (Merck Millipore, Burlington, MA, USA) was applied before each seeding to calculate the number of cells. For the next analyses, cells were reseeded in 6-well plates, 24-well plates, and 96-well plates.
(§2) MTT (3-(4,5-dimethylthiazol-2-yl)-2,5-diphenyltetrazolium bromide) assay method was utilized to analyze compound effects on cell viability. All cell lines were seeded in 96-well plates with 1 × 10^4 cells per well. After 24 h, cells were treated with the tested compounds and reference drug at concentrations of 0.1, 1, 2.5, 5, 10, and 20 µM for 24, 48, or 72 h. Next, a solution of 3-(4,5-dimethyl-2-thiazolyl)-2,5-diphenyl-2H-tetrazolium bromide (Sigma-Aldrich, St. Louis, MO, USA) in PBS with a concentration of 5 mg/mL was prepared. After the incubation with tested compounds, 10 µL of the prepared MTT solution was applied to each well, followed by 2 h of incubation at 37 °C. Next, cells underwent lysis by adding 100 µL of pre-prepared lysing buffer (containing 25 mM HCl, 2% acetic acid, 3% DMF, and 5% SDS, with a pH of 4.7). The absorbance was measured using a UV-VIS Helios Gamma (Unicam/ThermoFisher Scientific Inc., Cleveland, OH, USA) at 570 nm wavelength. The cells incubated with vehicle substance (0.1% DMSO) were taken as controls.
(§3) To investigate the cytotoxic potential of the newly synthesized compounds, a comprehensive assessment was conducted utilizing the MTT assay. This assay was applied on a diverse panel of cell lines, such as human breast cancer cell lines (MCF-7 and MDA-MB-231), human gastric cancer cell line (AGS), human colorectal cancer cell lines (HT-29 and DLD-1), human glioblastoma cancer cell lines (T98G and A172), mouse astrocyte type I clone cells (C8-D1A), primary dermal fibroblast (HDFa), and human normal breast cells (MCF-10A) for 24, 48, and/or 72 h.

C8-D1A = test: MTT cell viability assay; type: cell-based; conditions: Mus musculus, normal cells
From the text: as §1, §2, §3

DLD-1 = test: MTT cell viability assay; type: cell-based; conditions: Homo sapiens
From the text: as §1, §2, §3

MCF-10A = test: MTT cell viability assay; type: cell-based; conditions: Homo sapiens, normal cells
From the text: as §1, §2, §3

MCF-7 = test: MTT cell viability assay; type: cell-based; conditions: Homo sapiens
From the text: as §1, §2, §3

MDA-MB-231 = test: MTT cell viability assay; type: cell-based; conditions: Homo sapiens
From the text: as §1, §2, §3

[1] = tested on: Primary Dermal Fibroblast (HDFa); test: MTT cell viability assay; type: cell-based; conditions: Homo sapiens, normal cells
From the text: as §1, §2, §3

caspase 7 = test: FLICA caspase-3/7 activity, flow cytometry; type: cell-based, human; conditions: 5 µM, 24 h, MCF-7
Method: To determine the effects of the novel compounds on the caspases-3/7, caspase-8, caspase-9, and caspase-10 activity, the FLICA Caspase-3/7 Assay Kit, FLICA Caspase-8 Assay Kit, FLICA Caspase-9 Assay Kit, and FLICA Caspase-10 Assay Kit were applied (ImmunoChemistry Technologies, Bloomington, MN, USA). MCF-7 cells were seeded on 6-well plates (1 × 10^5 cells per well) and incubated for 24 h. Afterwards, they were treated for 24 h with tested compounds (Les-6416, Les-6418, Les-6381, Les-6423, and Les-6424) in a concentration of 5 µM and the reference drug doxorubicin hydrochloride in a concentration of 0.5 µM. Next, cells were amassed and washed two times with cold PBS, followed by resuspension in an Apoptosis Wash Buffer to a final concentration of 5 × 10^5 cells/mL. Afterwards, 290 µL of the prepared cell suspensions were transferred into tubes, followed by the addition of 10 µL of FLICA solution, prepared immediately before use, to each sample and incubated for an hour at 37 °C. Next, cells were washed two times with 2 mL of Apoptosis Wash Buffer, provided in the kit, centrifuged, and resuspended in 300 µL of the buffer. Prepared samples were assessed by a BD FACSCanto II flow cytometer (Becton Dickinson Biosciences, San Jose, CA, USA). For each sample, 1 × 10^4 events were analyzed. The obtained results were investigated by applying FACSDiva software Version 6.1.3 (BD Biosciences Systems, San Jose, CA, USA).
To further investigate the effects of the newly synthesized compounds on the process of apoptosis we decided to measure their impact on various caspases as evidence of intrinsic (caspase 9) or extrinsic (caspase 8, 10) pathways of programmed cell death by applying flow cytometry analysis after 24 h treatment of MCF-7 breast cancer cells with novel 4-thiazolidinone derivatives and reference drug doxorubicin hydrochloride. […] With 41.28 ± 5.45%, 43.23 ± 2.85%, and 41.90 ± 6.89% of cells with activated caspase 8, 10, and 9, respectively, Les-6416 continued the trend of displaying the most significant effect on the three tested caspases. […]

Structure (SMILES) | IC50 (AGS; AGS 24 h) | IC50 (AGS; AGS 48 h) | IC50 (C8-D1A; C8-D1A 24 h) | IC50 (C8-D1A; C8-D1A 48 h) | IC50 (DLD-1; DLD-1 24 h) | IC50 (DLD-1; DLD-1 48 h) | IC50 (MCF-10A; MCF-10A 24 h) | IC50 (MCF-10A; MCF-10A 48 h) | IC50 (MCF-10A; MCF-10A 72 h) | IC50 (MCF-7; MCF7, MCF-7 24 h) | IC50 (MCF-7; MCF7, MCF-7 48 h) | IC50 (MCF-7; MCF7, MCF-7 72 h) | IC50 (MDA-MB-231; MDA-MB-231 24 h) | IC50 (MDA-MB-231; MDA-MB-231 48 h) | IC50 (MDA-MB-231; MDA-MB-231 72 h) | IC50 ([1]; HDFa 24 h) | IC50 ([1]; HDFa 48 h) | IC50 ([1]; HDFa 72 h) | cells with active caspase 7 (caspase 7)
COc1cc(NC2=NC(=O)C(=Cc3ccc4cc[nH]c4c3)S2)cc(OC)c1OC [Les-6416, 5-((1H-Indol-6-yl)methylene)-2-((3,4,5-trimethoxyphenyl)amino)thiazol-4(5H)-one] | > 20 µM | 3.45 ± 0.2 µM | 14.3 ± 1.52 µM | 7.1 ± 0.73 µM | > 20 µM | > 20 µM | > 20 µM | 7.99 ± 0.48 µM | 7.25 ± 0.3 µM | 4.7 ± 0.06 µM | 2.09 ± 0.05 µM | 1.29 ± 0.01 µM | > 20 µM | > 20 µM | > 20 µM | > 20 µM | > 20 µM | > 20 µM | 47.90 ± 0.57%
COc1cc(NC2=NC(=O)C(=Cc3c[nH]c4ccccc34)S2)cc(OC)c1OC [Les-6418, 5-((1H-Indol-3-yl)methylene)-2-((3,4,5-trimethoxyphenyl)amino)thiazol-4(5H)-one] | > 20 µM | 4.59 ± 0.42 µM | 12.9 ± 0.24 µM | 7.42 ± 2.33 µM | > 20 µM | > 20 µM | > 20 µM | 7.24 ± 0.29 µM | 6.66 ± 0.67 µM | > 20 µM | 4.51 ± 0.04 µM | 2.24 ± 0.07 µM | > 20 µM | > 20 µM | > 20 µM | > 20 µM | > 20 µM | > 20 µM | 19.85 ± 0.07%
COc1cc(NC2=NC(=O)C(=Cc3cccs3)S2)cc(OC)c1OC [Les-6423, 5-(Thiophen-2-ylmethylene)-2-((3,4,5-trimethoxyphenyl)amino)thiazol-4(5H)-one] | > 20 µM | 14.5 ± 0.57 µM |  |  | > 20 µM | > 20 µM |  |  |  | > 20 µM | > 20 µM | > 20 µM | > 20 µM | > 20 µM | > 20 µM | > 20 µM | > 20 µM | > 20 µM | 
COc1ccc(C=C2SC(Nc3cc(OC)c(OC)c(OC)c3)=NC2=O)cc1 [Les-6381, 5-(4-Methoxybenzylidene)-2-((3,4,5-trimethoxyphenyl)amino)thiazol-4(5H)-one] | > 20 µM | 2.24 ± 0.31 µM |  |  | 18.2 ± 1.24 µM | 3.86 ± 0.11 µM | 8.37 ± 0.11 µM | 0.97 ± 0.04 µM | 2.03 ± 0.1 µM | 6.93 ± 0.13 µM | 7.93 ± 0.1 µM | 2.43 ± 0.12 µM | > 20 µM | > 20 µM | > 20 µM | > 20 µM | > 20 µM | > 20 µM | 15.05 ± 1.73%
COc1cccc2c1C(=O)c1c(O)c3c(c(O)c1C2=O)C[C@@](O)(C(=O)CO)C[C@@H]3O[C@H]1C[C@H](N)[C@H](O)[C@H](C)O1 [DOX, Doxorubicin hydrochloride, reference compound] | > 20 µM | 0.39 ± 0.01 µM | > 20 µM | 0.25 ± 0.01 µM | 4.69 ± 0.48 µM | 0.6 ± 0.08 µM | > 20 µM | 0.16 ± 0.01 µM | 0.11 ± 0.01 µM | 2.46 ± 0.54 µM | 0.81 ± 0.01 µM | 0.26 ± 0.03 µM | > 20 µM | 3.91 ± 0.22 µM | 2.37 ± 0.15 µM | > 20 µM | > 20 µM | 0.99 ± 0.03 µM | 
